Data from US20090215758A1, “Use of 2,5-Disubstituted Thiazol-4-One Derivatives in Drugs” (Gruenenthal GmbH, priority 2005, published 2009).
Where a name gives a salt, the structure may show the parent alone.

Columns and labels:
VR1 (human) = molecular target: T1, VR1 (human) (Homo sapiens, UniProt Q8NER1); assay: Functional study on vanilloid receptor (VR1), FLIPR Ca2+ assay in CHO K1 cells stably transfected with the VR1 gene; format: cell-based; details: for inhibition at 10 µM / activation at 10 µM: CHO-K1, test compound 10 μM; for activation at 10 µM: Ca2+ signal relative to 10 μM capsaicin (CP), read-out: VR1 (human) (% stimulation compared to 10 μM CP); for EC50: unit inferred
T1 construct: expressed in transfected cells; host or cells: CHO K1 cells (ECACC), stably transfected

[1] = molecular target: T2, vanilloid receptor 1 (VR1/TRPV1) of the rat species (Rattus norvegicus, UniProt O35433); assay: Functional study on vanilloid receptor 1, FLIPR Ca2+ assay in rat dorsal root ganglia cells; format: cell-based; details: for inhibition at 10 µM: 5 min incubation, then 100 nM capsaicin, relative to maximum inhibition with 10 μM capsaicin, read-out: VR1 (rat) (% inhibition compared to 10 μM CP); for activation at 10 µM: read-out: VR1 (rat) (% stimulation compared to 10 μM CP); for EC50: unit inferred
T2 construct: The spinal column is removed from beheaded rats; from tissue; host or cells: primary cells from rat dorsal root ganglia (DRGs)

[2] = 5 min incubation, then 100 nM capsaicin, compared to 10 μM CP
[3] = test compound 10 μM, Ca2+ signal relative to 10 μM capsaicin (CP)

T2 sequence (O35433 whole entry): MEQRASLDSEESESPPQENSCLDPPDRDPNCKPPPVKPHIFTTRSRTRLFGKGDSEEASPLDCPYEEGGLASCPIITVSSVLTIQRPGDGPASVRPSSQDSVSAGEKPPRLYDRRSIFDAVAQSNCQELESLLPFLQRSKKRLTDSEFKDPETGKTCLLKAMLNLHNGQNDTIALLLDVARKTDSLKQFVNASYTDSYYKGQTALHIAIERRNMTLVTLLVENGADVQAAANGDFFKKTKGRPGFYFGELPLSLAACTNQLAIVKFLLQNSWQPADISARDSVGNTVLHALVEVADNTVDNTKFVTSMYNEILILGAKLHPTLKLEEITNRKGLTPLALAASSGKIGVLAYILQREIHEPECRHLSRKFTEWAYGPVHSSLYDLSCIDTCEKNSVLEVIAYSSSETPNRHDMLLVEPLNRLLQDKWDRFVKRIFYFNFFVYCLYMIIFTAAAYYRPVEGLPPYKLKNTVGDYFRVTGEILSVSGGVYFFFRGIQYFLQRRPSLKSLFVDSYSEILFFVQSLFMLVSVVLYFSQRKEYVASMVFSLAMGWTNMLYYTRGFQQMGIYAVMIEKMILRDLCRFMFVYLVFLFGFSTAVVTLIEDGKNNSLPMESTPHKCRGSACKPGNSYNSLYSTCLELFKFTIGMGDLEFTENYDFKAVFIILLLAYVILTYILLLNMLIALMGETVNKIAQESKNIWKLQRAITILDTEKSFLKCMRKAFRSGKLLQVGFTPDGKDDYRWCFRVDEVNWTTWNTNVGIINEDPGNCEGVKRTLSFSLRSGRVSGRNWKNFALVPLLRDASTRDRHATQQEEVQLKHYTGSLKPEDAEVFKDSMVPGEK
T1 sequence (Q8NER1 whole entry): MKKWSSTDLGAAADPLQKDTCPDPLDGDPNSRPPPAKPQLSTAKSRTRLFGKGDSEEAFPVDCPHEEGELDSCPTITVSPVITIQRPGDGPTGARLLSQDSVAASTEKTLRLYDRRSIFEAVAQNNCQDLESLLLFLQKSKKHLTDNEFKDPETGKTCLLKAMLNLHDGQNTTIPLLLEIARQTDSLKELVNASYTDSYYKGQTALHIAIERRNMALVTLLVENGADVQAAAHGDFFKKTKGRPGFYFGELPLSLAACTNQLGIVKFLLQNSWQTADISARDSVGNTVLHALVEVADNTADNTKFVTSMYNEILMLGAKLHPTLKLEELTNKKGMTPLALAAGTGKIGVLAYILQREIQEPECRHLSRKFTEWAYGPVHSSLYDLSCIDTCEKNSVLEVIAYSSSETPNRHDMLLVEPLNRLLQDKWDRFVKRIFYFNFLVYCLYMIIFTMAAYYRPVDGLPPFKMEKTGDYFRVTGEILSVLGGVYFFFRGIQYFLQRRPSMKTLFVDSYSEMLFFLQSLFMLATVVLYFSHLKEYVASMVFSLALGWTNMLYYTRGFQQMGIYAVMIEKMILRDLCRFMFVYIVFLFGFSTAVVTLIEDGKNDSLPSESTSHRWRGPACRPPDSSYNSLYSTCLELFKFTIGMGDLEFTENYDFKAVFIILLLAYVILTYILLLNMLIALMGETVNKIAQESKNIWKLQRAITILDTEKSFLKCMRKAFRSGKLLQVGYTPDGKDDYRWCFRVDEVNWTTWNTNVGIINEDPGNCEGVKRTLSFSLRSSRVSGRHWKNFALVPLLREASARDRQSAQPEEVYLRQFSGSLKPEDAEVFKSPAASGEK

Structure (SMILES) | inhibition at 10 µM (VR1 (human); [2]) [%] | activation at 10 µM (VR1 (human)) [%] | EC50 (VR1 (human)) [µM] | inhibition at 10 µM ([1]; test compound 10 μM) [%] | activation at 10 µM [1, 3] [%] | EC50 [1] [µM] | VR1 (rat) (% stimulation compared to 10 μM CP) [1, 3] [%] | VR1 (human) (% inhibition compared to 10 μM CP) (VR1 (human); test compound 10 μM, 5 min incubation, then 100 nM capsaicin, compared to 10 μM CP) [%]
CC(C)(C)c1ccc(C=C2SC(N3CCCCCC3)=NC2=O)cc1 [Example 200, 2-azepan-1-yl-5-(4-tert-butylbenzylidene)thiazol-4-one hydrobromide] | 2.12 | 17.5 | > 25 | 46.2 | 31.4 | > 25 |  | 
Cc1ccc(N2CCN(C3=NC(=O)C(=CC=Cc4ccccc4)S3)CC2)nn1 [Example 161, 2-[4-(6-methylpyridazin-3-yl)piperazin-1-yl]-5-(3-phenylallylidene)thiazol-4-one] | 47.2 | 2.43 |  | 17 | 2.5 |  |  | 
O=C(NC1=NC(=O)C(=Cc2ccc(C(F)(F)F)cc2)S1)Nc1ccccc1C(F)(F)F [Example 96, 1-[4-oxo-5-(4-trifluoromethylbenzylidene)-4,5-dihydrothiazol-2-yl]-3-(2-trifluoromethylphenyl)urea] | 54.6 | 5.03 |  | 27 | 28.5 |  |  | 
CC(C)(C)c1ccc(C=C2SC(N3CCOCC3)=NC2=O)cc1 [Example 197, 5-(4-tert-butylbenzylidene)-2-morpholin-4-ylthiazol-4-one] | 72.4 | 48 |  | 94.3 |  |  | 63.86 | 
Br.Cc1ccc(C=C2SC(N3CCOCC3)=NC2=O)cc1 [Example 176, 5-(4-methylbenzylidene)-2-morpholin-4-ylthiazol-4-one hydrobromide] |  | 14.5 |  | 97.5 | 44.7 |  |  | 35.32
O=C1N=C(N2CCSCC2)SC1=Cc1cccc(C(F)(F)F)c1 [Example 195, 2-thiomorpholin-4-yl-5-(3-trifluoromethylbenzylidene)thiazol-4-one hydrobromide] | 90.3 | 80.3 | 5.9 | 96.1 | 94.3 | 2.2 |  | 
O=C1N=C(N2CCSCC2)SC1=Cc1ccccc1 [Example 42, 5-benzylidene-2-thiomorpholin-4-ylthiazol-4-one] | 50.2 | 49.7 |  | 93.1 | 98.3 |  |  | 
CC(=CC=C1SC(N2CCOCC2)=NC1=O)c1cccc(C(F)(F)F)c1 [Example 44, 2-morpholin-4-yl-5-[3-(3-trifluoromethylphenyl)but-2-enylidene]thiazol-4-one] | 34.3 | 10.9 |  | 64.3 | 39.6 |  |  | 
Cc1ccc(C=C2SC(N3CCSCC3)=NC2=O)cc1 [Example 14, 5-(4-methylbenzylidene)-2-thiomorpholin-4-ylthiazol-4-one hydrobromide] | 89.4 | 107 | 5.17 | 82.1 | 108 | 0.95 |  | 
O=C1N=C(N2CCOCC2)SC1=CC(=Cc1ccccc1)c1ccccc1 [Example 50, 5-(2,3-diphenylallylidene)-2-morpholin-4-ylthiazol-4-one] | 51.6 | 0 |  | 21.3 | 7.19 |  |  | 
Cc1ccc(C=CC=C2SC(N3CCOCC3)=NC2=O)cc1 [Example 19, 2-morpholin-4-yl-5-(3-p-tolylallylidene)thiazol-4-one] | 10.8 | 8.82 | 13 | 31.4 | 11.7 | 7.76 |  | 
